Laboratory results taken from US5945436A, “Pyridylmethyl nitriles, amides and thioamides useful as fungicides” (Uniroyal Chemical Company, Inc., priority 1997, dated 1999).

Columns and labels:
Erysiphe cichoracearum = experiment: Powdery mildew of cucumber, systemic root uptake (CMS); type: in vivo; details: 45 ml of 250 mg/l, 8 days after inoculation
Protocol: Compositions containing Compounds Nos. 1-81 were prepared by dissolving 0.24 grams of each of the compounds in 8 ml of acetone or other suitable inert solvent. Each of the resultant solutions was treated with 3 drops of TWEEN 20 (ethoxylated ethylene sorbitan monolaurate, a non-ionic surfactant)(I.C.I.), and water was added to form an emulsion. The degree of dilution with water was dictated by the desired concentration of the compound in the composition. The greater the quantity of water added, the lower the concentration of the compound in the composition, reported in milligrams per liter (mg/l) […] Upon reaching these ages, the plants were either treated with 45 ml of 250 mg/l concentration of the compositions of Example 9 or were left untreated. The untreated plants were used as controls. The 45 ml compositions saturated the soil of the treated pots without significant loss through drainage into the saucers below the pots. Twenty-four hours after the treatment with the compositions, both the barley and cucumber plants in all the pots, those treated and those untreated, were inoculated with powdery mildew fungus. This was accomplished by tapping leaves of previously infected barley and cucumber plants over the treated and untreated pots containing the barley and cucumber plants, respectively, to distribute spores of the fungus over the plants tested. […] Intermediate ratings were assigned depending on the degree of disease. […] The results of the powdery mildew disease control of barley are reported under the heading of "BMS". The results for cucumber mildew control are reported under the heading "CMS".

Uromyces phaseoli = experiment: Bean rust fungus eradicant test (URO PHA); type: in vivo; details: Uromyces phaseoli, 216 h, pinto bean, eradicant spray 2 days after inoculation, 1,000 mg/l; read-out: Percent Reduction of Disease, URO PHA
Protocol: Compositions containing Compounds Nos. 1-81 were prepared by dissolving 0.24 grams of each of the compounds in 8 ml of acetone or other suitable inert solvent. Each of the resultant solutions was treated with 3 drops of TWEEN 20 (ethoxylated ethylene sorbitan monolaurate, a non-ionic surfactant)(I.C.I.), and water was added to form an emulsion. The degree of dilution with water was dictated by the desired concentration of the compound in the composition. The greater the quantity of water added, the lower the concentration of the compound in the composition, reported in milligrams per liter (mg/l) A plurality of pots were each planted with two pinto bean plants, Phaseolus vulgaris, each, susceptible to rust disease. When the plants were 7 days old, at the primary leaf stage of growth, they were all sprayed with a suspension containing 20,000 spores of the bean rust fungus, Uromyces phaseoli, per ml. All the pots were then incubated in a controlled environmental chamber, maintained at 99% humidity and 21° C., for 24 hours to allow infection to occur. The plants were then removed from the incubator and allowed to dry. Two days after inoculation each of the infected plants was then either sprayed with one of the compositions of Example 9, at a dosage of 1,000 mg/l, or left unsprayed. The unsprayed plants acted as controls. All of the sprayed and unsprayed plants were then placed in a greenhouse at 21° C. for nine days to allow the disease to develop. […] Control of disease was determined by comparing treated plants with the untreated controls. The results, expressed as percent reduction of disease, are summarized in Table II under the heading "URO PHA".

Erysiphe graminis = experiment: Powdery mildew in barley, foliar application (ERY GRA); type: in vivo; details: Blumeria graminis, foliar, 192 h, foliar, 1,000 mg/l, 8 days after inoculation, read-out: Percent Reduction of Disease, ERY GRA
Protocol: Compositions containing Compounds Nos. 1-81 were prepared by dissolving 0.24 grams of each of the compounds in 8 ml of acetone or other suitable inert solvent. Each of the resultant solutions was treated with 3 drops of TWEEN 20 (ethoxylated ethylene sorbitan monolaurate, a non-ionic surfactant)(I.C.I.), and water was added to form an emulsion. The degree of dilution with water was dictated by the desired concentration of the compound in the composition. The greater the quantity of water added, the lower the concentration of the compound in the composition, reported in milligrams per liter (mg/l) Ten plants of "Robust" variety barley were planted in each of a plurality of pots. Each pot was then either sprayed with one of the compositions of Example 9, at a composition concentration of 1,000 mg/l, or left unsprayed. For each pot sprayed, one pot was left unsprayed as a control. After the leaves of the sprayed pots were dried, the sprayed pots and the unsprayed control pots were placed in a greenhouse maintained at 21° C. All the pots were then inoculated with barley powdery mildew fungus, Erysiphe graminis. This inoculation was accomplished by distributing spores of the fungus over the leaves of the plants to be tested from plants which had previously been infected with the mildew disease. […] Again, percent control was computed by comparing the treatment scores with the scores of the untreated controls. The results are summarized in Table II under the heading "ERY GRA".

Pyricularia oryzae = experiment: whole plant or invertebrate; type: in vivo; details: Pyricularia oryzae, in Hordeum vulgare, foliar, 216 h, read-out: Percent Reduction of Disease, PYR ORY, barley, foliar, 1,000 mg/l
Helminthosporium sativum = experiment: Barley spot blotch, foliar treatment (HEL SAT); type: in vivo; details: Helminthosporium, foliar, 216 h, foliar, 1,000 mg/l, read-out: Percent Reduction of Disease, HEL SAT
Protocol: Compositions containing Compounds Nos. 1-81 were prepared by dissolving 0.24 grams of each of the compounds in 8 ml of acetone or other suitable inert solvent. Each of the resultant solutions was treated with 3 drops of TWEEN 20 (ethoxylated ethylene sorbitan monolaurate, a non-ionic surfactant)(I.C.I.), and water was added to form an emulsion. The degree of dilution with water was dictated by the desired concentration of the compound in the composition. The greater the quantity of water added, the lower the concentration of the compound in the composition, reported in milligrams per liter (mg/l) Ten plants of six day-old Barley (variety "Robust") were planted in each of a plurality of pots. Each pot was then either sprayed with one of the compositions of Example 9, at a concentration of 1,000 mg/l, or left unsprayed. The unsprayed plants were used as controls. An equal number of pots were sprayed and unsprayed. All plants, sprayed and unsprayed, were thereafter inoculated with spores of the blotch fungus Helminthosporium sativum. All inoculated plants were placed in a 99% humidity chamber for 24 hours and then placed in a greenhouse, maintained at a temperature of 21° C., for eight days. […] Percent control was computed and the results are summarized in Table II under the heading "HEL SAT".

Septoria nodorum = experiment: Fungal growth inhibition, treated disc on agar (SEP NOD); type: cell-based; details: Parastagonospora nodorum, disc dipped in 500 mg/l, 29° C., read-out: Percent Growth Inhibition, SEP NOD
Rhizoctonia solani = experiment: Fungal growth inhibition, treated disc on agar (RHI SOL); type: cell-based; details: Rhizoctonia solani, disc dipped in 500 mg/l, 29° C., read-out: Percent Growth Inhibition, RHI SOL
From the text: (§1) Filter paper discs, each 11 mm. in diameter, were dipped in each of the test solutions. The discs were allowed to air dry to drive off the acetone solvent. A number of untreated discs were used as controls.
(§2) The treated and untreated discs were then placed on agar plates and one of the following fungus species: Septoria nodorum (SEP NOD), Botrytis cinerea (BOT CIN), Fusarium oxysporum (FUS OXY), Pythium ultimum (PYT ULT), Rhizoctonia solani (RHI SOL), Colletotrichum gossypii (COL GOS), and Scierotinia minor (SCL MIN), was added to the center of each disc in the form of a culture plug with the fungus mat in contact with the paper of the test disc. Cercosporidium personatum (CER PER), was added to discs as a spore suspension (20,000 spores/ml) to the disc (two drops of spore suspension per disc), rather than a mycelial culture plug. The plates were then incubated at 29° C. in an oven.
(§3) With the exception of the discs containing Cercosporidium personatum, the discs were evaluated by first measuring the radius from the center of the fungus colony on the treated discs and on the untreated discs. Percent growth inhibition of each of the compounds tested was determined as a function of the difference between the radius of the fungus colony on the treated disc versus the radius of the fungus colony on the untreated disc.

Botrytis cinerea = experiment: Fungal growth inhibition, treated disc on agar (BOT CIN); type: cell-based; details: Botrytis cinerea, disc dipped in 500 mg/l, 29° C., read-out: Percent Growth Inhibition, BOT CIN
From the text: as §1, §2, §3

SMILES | Percent Reduction of Disease, CMS (Erysiphe cichoracearum) [%] | pest or weed control at 1000 µg/mL (Uromyces phaseoli) [%] | pest or weed control at 1000 µg/mL (Erysiphe graminis) [%] | pest or weed control at 1000 µg/mL (Pyricularia oryzae) [%] | pest or weed control at 1000 µg/mL (Helminthosporium sativum) [%] | inhibition at 500 µg/mL (Septoria nodorum) [%] | inhibition at 500 µg/mL (Rhizoctonia solani) [%] | inhibition at 500 µg/mL (Botrytis cinerea) [%]
N#CC(CCc1ccccc1)(CCc1ccccc1)c1cccnc1 [A, reference compound] | 50 | 0 | 0 | 10 | 60 | 0 | 10 | 0
CC(C)(C)c1ccc(CC(C#N)(Cc2ccc(C(C)(C)C)cc2)c2cccnc2)cc1 [B, reference compound] | 50 | 0 | 15 |  | 0 | 10 | 15 | 0
CCCC(C#N)(CCc1ccccc1)c1cccnc1 (stereo not drawn) [Compound 1] | 0 | 60 | 100 | 0 | 65 | 0 | 95 | 5
CCCCCCCC(C#N)(CCc1ccccc1)c1cccnc1 (stereo not drawn) [Compound 2] | 0 | 97 | 100 | 45 | 80 | 0 | 0 | 60
CCCCCC(C#N)(CCc1ccccc1)c1cccnc1 (stereo not drawn) [Compound 3] | 35 | 100 | 100 | 100 | 100 | 86 | 10 | 100
C#CCC(C#N)(CCc1ccccc1)c1cccnc1 (stereo not drawn) [Compound 4] | 20 | 0 | 70 | 50 | 0 | 92 | 82 | 94
C=CCC(C#N)(CCc1ccccc1)c1cccnc1 (stereo not drawn) [Compound 5] | 88 | 90 | 85 | 83 | 70 | 50 | 100 | 100
COCC(C#N)(CCc1ccccc1)c1cccnc1 (stereo not drawn) [Compound 6] | 100 | 50 | 70 | 0 | 100 | 0 | 50 | 100
CC(C)CC(C#N)(CCc1ccccc1)c1cccnc1 (stereo not drawn) [Compound 7] | 20 | 90 | 100 | 83 | 70 | 5 | 94 | 100
CC(C)=CCC(C#N)(CCc1ccccc1)c1cccnc1 (stereo not drawn) [Compound 8] | 0 | 80 | 100 | 0 | 100 | 25 | 45 | 40
C=CCC(C#N)(CCc1ccc(F)cc1)c1cccnc1 (stereo not drawn) [Compound 9, 4-fluoro-α-(2-propenyl)-α-(3-pyridinyl)benzenebutanenitrile] | 74 | 100 | 100 | 70 | 85 | 30 | 95 | 100
CCCC(C#N)(CCc1ccc(F)cc1)c1cccnc1 (stereo not drawn) [Compound 10] | 88 | 100 | 100 | 70 | 100 | 80 | 96 | 98
CCCCC(C#N)(CCc1ccc(F)cc1)c1cccnc1 (stereo not drawn) [Compound 11] | 39 | 100 | 100 | 85 | 100 | 60 | 98 | 100
CCCCC(C#N)(CCc1ccc(C)cc1)c1cccnc1 (stereo not drawn) [Compound 34] | 20 | 100 | 100 | 0 | 100 | 100 |  | 100
C=C(Cl)CC(C#N)(CCc1ccc(F)cc1)c1cccnc1 (stereo not drawn) [Compound 65] | 0 | 50 | 85 |  | 100 | 100 | 30 | 100
Cc1ccc(CCC(C#N)(CCCF)c2cccnc2)cc1 (stereo not drawn) [Compound 81] | 0 | 90 | 70 |  |  | 40 | 5 | 30
